This experiment has as its target T1, human serum albumin (HSA) (Homo sapiens, UniProt P02768).
T1 construct: gene ALB; serum albumin in HEPES pH 7.4
Description: UV-Vis titration, Benesi-Hildebrand. The class given is binding. The note with it: HEPES pH 7.4, 25 °C, DMSO < 1%. The text has this:
UV-Vis titration, Benesi-Hildebrand on human serum albumin (HSA)

T1 sequence (P02768 25-609): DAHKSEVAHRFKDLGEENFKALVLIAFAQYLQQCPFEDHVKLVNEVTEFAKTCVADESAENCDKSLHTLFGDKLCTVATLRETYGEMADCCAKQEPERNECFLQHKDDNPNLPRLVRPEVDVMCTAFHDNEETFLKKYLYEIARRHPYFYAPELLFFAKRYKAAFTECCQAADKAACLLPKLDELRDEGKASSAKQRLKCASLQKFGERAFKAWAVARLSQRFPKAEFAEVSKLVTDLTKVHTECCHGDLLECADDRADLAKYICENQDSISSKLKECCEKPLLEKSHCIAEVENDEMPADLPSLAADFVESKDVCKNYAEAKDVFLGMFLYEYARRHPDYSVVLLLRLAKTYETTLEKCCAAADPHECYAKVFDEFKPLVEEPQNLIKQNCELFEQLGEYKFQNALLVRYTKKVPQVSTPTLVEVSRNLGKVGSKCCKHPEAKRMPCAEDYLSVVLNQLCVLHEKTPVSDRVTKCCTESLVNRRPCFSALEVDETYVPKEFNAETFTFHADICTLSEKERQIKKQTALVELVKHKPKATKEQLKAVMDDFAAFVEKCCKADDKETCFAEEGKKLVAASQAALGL

Regarding `COc1ccc2c(c1)CCCC2=NNc1cc(NCCN(C)C)ncn1` [L2], the “binding constant (Kb) to HSA” value was 4.54 × 10^5 dm^3/mol. Consider `COc1ccc2c(c1)CCCC2=NNc1cc(NCCCN(C)C)ncn1` [L4], for which the “binding constant (Kb)” value is given as 6.82 × 10^4 dm^3/mol.

Take `CCN(CC)CCNc1cc(NN=C2CCCc3cc(OC)ccc32)ncn1` [L1]: the “binding constant (Kb) to HSA” value is on record as 9.92 × 10^4 dm^3/mol.

These data come from article PMC11507521, “Pyrimidine Derivatives as Selective COX-2 Inhibitors with Anti-Inflammatory and Antioxidant Properties” (International Journal of Molecular Sciences, 2024).
